Assay: xn = mol fraction of the nth substance listed
Settings: 100 kPa, Liquid; for viscosity: Concentric cylinders viscometry; for mass density: Vibrating tube method

CCCC[n+]1ccccc1.F[B-](F)(F)F [1-butylpyridinium tetrafluoroborate] + CCCCn1cc[n+](C)c1.F[B-](F)(F)F
Settings	mass density [kg/m3]	viscosity [mPa·s]
293.15 K, x2 = 0	1216.6	228.9
293.15 K, x2 = 0.1007	1215.4	–
293.15 K, x2 = 0.1009	–	219.4
293.15 K, x2 = 0.2004	1214.3	–
293.15 K, x2 = 0.2005	–	209.3
293.15 K, x2 = 0.3001	1213.1	–
293.15 K, x2 = 0.3003	–	199.5
293.15 K, x2 = 0.4001	–	190
293.15 K, x2 = 0.4004	1211.7	–
293.15 K, x2 = 0.4999	–	180.9
293.15 K, x2 = 0.5009	1210.6	–
293.15 K, x2 = 0.6004	1209.4	–
293.15 K, x2 = 0.6007	–	172.5
293.15 K, x2 = 0.7004	–	163.9
293.15 K, x2 = 0.7013	1208.1	–
293.15 K, x2 = 0.8001	–	156.9
293.15 K, x2 = 0.8007	1206.7	–
293.15 K, x2 = 0.8987	1205.5	–
293.15 K, x2 = 0.8998	–	148.7
298.15 K, x2 = 0	1213.1	166.9
298.15 K, x2 = 0.1007	1211.9	–
298.15 K, x2 = 0.1009	–	160.8
298.15 K, x2 = 0.2004	1210.8	–
298.15 K, x2 = 0.2005	–	153.7
298.15 K, x2 = 0.3001	1209.6	–
298.15 K, x2 = 0.3003	–	147.1
298.15 K, x2 = 0.4001	–	140.8
298.15 K, x2 = 0.4004	1208.2	–
298.15 K, x2 = 0.4999	–	134.6
298.15 K, x2 = 0.5009	1207.1	–
298.15 K, x2 = 0.6004	1205.8	–
298.15 K, x2 = 0.6007	–	128.8
298.15 K, x2 = 0.7004	–	123.1
298.15 K, x2 = 0.7013	1204.5	–
298.15 K, x2 = 0.8001	–	117.9
298.15 K, x2 = 0.8007	1203.1	–
298.15 K, x2 = 0.8987	1202	–
298.15 K, x2 = 0.8998	–	112.7
303.15 K, x2 = 0	1209.6	124.5
303.15 K, x2 = 0.1007	1208.4	–
303.15 K, x2 = 0.1009	–	120.4
303.15 K, x2 = 0.2004	1207.3	–
303.15 K, x2 = 0.2005	–	115.6
303.15 K, x2 = 0.3001	1206.1	–
303.15 K, x2 = 0.3003	–	111.1
303.15 K, x2 = 0.4001	–	106.9
303.15 K, x2 = 0.4004	1204.7	–
303.15 K, x2 = 0.4999	–	102.5
303.15 K, x2 = 0.5009	1203.6	–
303.15 K, x2 = 0.6004	1202.3	–
303.15 K, x2 = 0.6007	–	98.69
303.15 K, x2 = 0.7004	–	94.64
303.15 K, x2 = 0.7013	1201	–
303.15 K, x2 = 0.8001	–	90.99
303.15 K, x2 = 0.8007	1199.6	–
303.15 K, x2 = 0.8987	1198.4	–
303.15 K, x2 = 0.8998	–	87.26
308.15 K, x2 = 0	1206.2	94.97
308.15 K, x2 = 0.1007	1204.9	–
308.15 K, x2 = 0.1009	–	92.11
308.15 K, x2 = 0.2004	1203.8	–
308.15 K, x2 = 0.2005	–	88.99
308.15 K, x2 = 0.3001	1202.6	–
308.15 K, x2 = 0.3003	–	85.73
308.15 K, x2 = 0.4001	–	82.59
308.15 K, x2 = 0.4004	1201.2	–
308.15 K, x2 = 0.4999	–	79.65
308.15 K, x2 = 0.5009	1200.1	–
308.15 K, x2 = 0.6004	1198.8	–
308.15 K, x2 = 0.6007	–	76.79
308.15 K, x2 = 0.7004	–	73.92
308.15 K, x2 = 0.7013	1197.5	–
308.15 K, x2 = 0.8001	–	71.3
308.15 K, x2 = 0.8007	1196.1	–
308.15 K, x2 = 0.8987	1194.9	–
308.15 K, x2 = 0.8998	–	68.74
313.15 K, x2 = 0	1202.8	73.94
313.15 K, x2 = 0.1007	1201.5	–
313.15 K, x2 = 0.1009	–	71.92
313.15 K, x2 = 0.2004	1200.4	–
313.15 K, x2 = 0.2005	–	69.59
313.15 K, x2 = 0.3001	1199.2	–
313.15 K, x2 = 0.3003	–	67.3
313.15 K, x2 = 0.4001	–	65.09
313.15 K, x2 = 0.4004	1197.8	–
313.15 K, x2 = 0.4999	–	62.92
313.15 K, x2 = 0.5009	1196.6	–
313.15 K, x2 = 0.6004	1195.3	–
313.15 K, x2 = 0.6007	–	61
313.15 K, x2 = 0.7004	–	58.91
313.15 K, x2 = 0.7013	1193.9	–
313.15 K, x2 = 0.8001	–	56.91
313.15 K, x2 = 0.8007	1192.6	–
313.15 K, x2 = 0.8987	1191.4	–
313.15 K, x2 = 0.8998	–	54.99
318.15 K, x2 = 0	1199.4	58.64
318.15 K, x2 = 0.1007	1198.1	–
318.15 K, x2 = 0.1009	–	57.19
318.15 K, x2 = 0.2004	1197	–
318.15 K, x2 = 0.2005	–	55.49
318.15 K, x2 = 0.3001	1195.7	–
318.15 K, x2 = 0.3003	–	53.81
318.15 K, x2 = 0.4001	–	52.19
318.15 K, x2 = 0.4004	1194.4	–
318.15 K, x2 = 0.4999	–	50.59
318.15 K, x2 = 0.5009	1193.1	–
318.15 K, x2 = 0.6004	1191.8	–
318.15 K, x2 = 0.6007	–	49.12
318.15 K, x2 = 0.7004	–	47.51
318.15 K, x2 = 0.7013	1190.6	–
318.15 K, x2 = 0.8001	–	46.14
318.15 K, x2 = 0.8007	1189.1	–
318.15 K, x2 = 0.8987	1187.8	–
318.15 K, x2 = 0.8998	–	44.72
323.15 K, x2 = 0	1196	47.29
323.15 K, x2 = 0.1007	1194.7	–
323.15 K, x2 = 0.1009	–	46.21
323.15 K, x2 = 0.2004	1193.5	–
323.15 K, x2 = 0.2005	–	44.95
323.15 K, x2 = 0.3001	1192.3	–
323.15 K, x2 = 0.3003	–	43.7
323.15 K, x2 = 0.4001	–	42.46
323.15 K, x2 = 0.4004	1190.9	–
323.15 K, x2 = 0.4999	–	41.32
323.15 K, x2 = 0.5009	1189.6	–
323.15 K, x2 = 0.6004	1188.3	–
323.15 K, x2 = 0.6007	–	40.18
323.15 K, x2 = 0.7004	–	39.01
323.15 K, x2 = 0.7013	1187	–
323.15 K, x2 = 0.8001	–	37.96
323.15 K, x2 = 0.8007	1185.6	–
323.15 K, x2 = 0.8987	1184.3	–
323.15 K, x2 = 0.8998	–	36.87
328.15 K, x2 = 0	1192.6	38.71
328.15 K, x2 = 0.1007	1191.3	–
328.15 K, x2 = 0.1009	–	37.89
328.15 K, x2 = 0.2004	1190.1	–
328.15 K, x2 = 0.2005	–	36.94
328.15 K, x2 = 0.3001	1188.8	–
328.15 K, x2 = 0.3003	–	36
328.15 K, x2 = 0.4001	–	35.04
328.15 K, x2 = 0.4004	1187.5	–
328.15 K, x2 = 0.4999	–	34.16
328.15 K, x2 = 0.5009	1186.2	–
328.15 K, x2 = 0.6004	1184.9	–
328.15 K, x2 = 0.6007	–	33.29
328.15 K, x2 = 0.7004	–	32.42
328.15 K, x2 = 0.7013	1183.5	–
328.15 K, x2 = 0.8001	–	31.6
328.15 K, x2 = 0.8007	1182.1	–
328.15 K, x2 = 0.8987	1180.8	–
328.15 K, x2 = 0.8998	–	30.76
333.15 K, x2 = 0	1189.2	32.12
333.15 K, x2 = 0.1007	1188	–
333.15 K, x2 = 0.1009	–	31.48
333.15 K, x2 = 0.2004	1186.7	–
333.15 K, x2 = 0.2005	–	30.81
333.15 K, x2 = 0.3001	1185.4	–
333.15 K, x2 = 0.3003	–	30.05
333.15 K, x2 = 0.4001	–	29.3
333.15 K, x2 = 0.4004	1184	–
333.15 K, x2 = 0.4999	–	28.66
333.15 K, x2 = 0.5009	1182.7	–
333.15 K, x2 = 0.6004	1181.4	–
333.15 K, x2 = 0.6007	–	27.94
333.15 K, x2 = 0.7004	–	27.27
333.15 K, x2 = 0.7013	1180	–
333.15 K, x2 = 0.8001	–	26.68
333.15 K, x2 = 0.8007	1178.6	–
333.15 K, x2 = 0.8987	1177.3	–
333.15 K, x2 = 0.8998	–	26.05
338.15 K, x2 = 0	1185.8	26.98
338.15 K, x2 = 0.1007	1184.6	–
338.15 K, x2 = 0.1009	–	26.47
338.15 K, x2 = 0.2004	1183.3	–
338.15 K, x2 = 0.2005	–	25.93
338.15 K, x2 = 0.3001	1182	–
338.15 K, x2 = 0.3003	–	25.37
338.15 K, x2 = 0.4001	–	24.83
338.15 K, x2 = 0.4004	1180.6	–
338.15 K, x2 = 0.4999	–	24.25
338.15 K, x2 = 0.5009	1179.3	–
338.15 K, x2 = 0.6004	1178	–
338.15 K, x2 = 0.6007	–	23.7
338.15 K, x2 = 0.7004	–	23.18
338.15 K, x2 = 0.7013	1176.6	–
338.15 K, x2 = 0.8001	–	22.68
338.15 K, x2 = 0.8007	1175.2	–
338.15 K, x2 = 0.8987	1173.9	–
338.15 K, x2 = 0.8998	–	22.23
343.15 K, x2 = 0	1182.5	22.97
343.15 K, x2 = 0.1007	1181.2	–
343.15 K, x2 = 0.1009	–	22.54
343.15 K, x2 = 0.2004	1179.9	–
343.15 K, x2 = 0.2005	–	22.07
343.15 K, x2 = 0.3001	1178.6	–
343.15 K, x2 = 0.3003	–	21.64
343.15 K, x2 = 0.4001	–	21.16
343.15 K, x2 = 0.4004	1177.3	–
343.15 K, x2 = 0.4999	–	20.75
343.15 K, x2 = 0.5009	1175.9	–
343.15 K, x2 = 0.6004	1174.5	–
343.15 K, x2 = 0.6007	–	20.32
343.15 K, x2 = 0.7004	–	19.9
343.15 K, x2 = 0.7013	1173.2	–
343.15 K, x2 = 0.8001	–	19.49
343.15 K, x2 = 0.8007	1171.8	–
343.15 K, x2 = 0.8987	1170.4	–
343.15 K, x2 = 0.8998	–	19.09
